What was measured:
[1] = biological target: rat μ-opioid receptors (rMOR) (Rattus norvegicus, UniProt P33535); experiment: biochemical; assay type: binding
[2] = biological target: human δ opioid receptors (hDOR) (Homo sapiens, UniProt P41143); experiment: biochemical; assay type: binding
δ opioid receptors = δ opioid receptors (Mus musculus, UniProt P32300); experiment: cell-based
μ opioid receptors = μ opioid receptors (Cavia porcellus, UniProt P97266); experiment: cell-based; parameters: species or system guinea pig
Chain of μ opioid receptors (P97266 whole entry, looked up): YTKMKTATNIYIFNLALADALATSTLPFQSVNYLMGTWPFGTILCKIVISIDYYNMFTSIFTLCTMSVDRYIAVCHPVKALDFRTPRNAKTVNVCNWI

Chain of human δ opioid receptors (hDOR) (P41143 whole entry): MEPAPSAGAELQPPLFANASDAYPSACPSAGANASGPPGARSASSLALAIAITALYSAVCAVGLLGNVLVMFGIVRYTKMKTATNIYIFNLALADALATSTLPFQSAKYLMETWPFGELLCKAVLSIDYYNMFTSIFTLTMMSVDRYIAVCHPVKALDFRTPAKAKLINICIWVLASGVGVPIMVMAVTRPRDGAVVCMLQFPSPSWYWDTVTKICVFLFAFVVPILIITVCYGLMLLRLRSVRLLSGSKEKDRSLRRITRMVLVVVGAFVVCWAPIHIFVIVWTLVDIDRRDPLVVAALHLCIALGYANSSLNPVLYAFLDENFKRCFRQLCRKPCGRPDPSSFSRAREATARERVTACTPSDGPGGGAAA
Chain of rat μ-opioid receptors (rMOR) (P33535 whole entry): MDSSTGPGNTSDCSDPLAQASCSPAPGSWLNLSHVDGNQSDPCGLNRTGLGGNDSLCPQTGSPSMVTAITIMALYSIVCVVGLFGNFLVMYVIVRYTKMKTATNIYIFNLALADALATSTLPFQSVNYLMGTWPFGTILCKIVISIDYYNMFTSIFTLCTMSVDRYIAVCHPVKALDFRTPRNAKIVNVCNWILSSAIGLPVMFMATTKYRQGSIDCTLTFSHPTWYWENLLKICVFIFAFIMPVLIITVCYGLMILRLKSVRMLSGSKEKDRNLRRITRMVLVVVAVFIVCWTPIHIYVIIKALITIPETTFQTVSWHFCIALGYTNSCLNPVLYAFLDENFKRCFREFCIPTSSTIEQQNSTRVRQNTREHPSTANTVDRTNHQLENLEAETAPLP
Chain of δ opioid receptors (P32300 whole entry): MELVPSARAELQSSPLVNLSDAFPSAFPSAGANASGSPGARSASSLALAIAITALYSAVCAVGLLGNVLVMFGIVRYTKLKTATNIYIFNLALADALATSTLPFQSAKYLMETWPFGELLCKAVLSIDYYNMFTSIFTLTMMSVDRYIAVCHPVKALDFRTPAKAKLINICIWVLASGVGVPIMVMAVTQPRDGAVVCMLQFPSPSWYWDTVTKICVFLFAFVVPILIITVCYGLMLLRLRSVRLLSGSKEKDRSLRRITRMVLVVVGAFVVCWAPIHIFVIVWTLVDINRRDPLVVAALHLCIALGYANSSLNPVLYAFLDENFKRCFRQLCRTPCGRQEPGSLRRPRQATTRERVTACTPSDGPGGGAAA

Compound: CCC(=O)N(CC1CCCCN1Cc1ccc2c(c1)CCC[C@H]2N(C(=O)CCNC(=O)[C@H](Cc1ccccc1)NC(=O)CNC(=O)[C@@H](C)NC(=O)[C@@H](N)Cc1c(C)cc(O)cc1C)C(=O)CCNC(=O)[C@H](Cc1ccccc1)NC(=O)CNC(=O)[C@@H](C)NC(=O)[C@@H](N)Cc1c(C)cc(O)cc1C)c1ccc(F)c(F)c1 (stereo partly drawn) [Compound 10]
- IC50 [1]: 1.29 nM
- Ki [1]: 0.6 nM
- IC50 [2]: 1.41 nM
- Ki [2]: 0.6 nM
- IC50 (δ opioid receptors): 6.1 ± 1.5 nM
- IC50 (μ opioid receptors): 2.1 ± 0.45 nM

— PMC4873255 (Bioorganic & medicinal chemistry letters, 2015)
